Measured values taken from PubChem BioAssay (NCI).
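Dose response: 5 concentrations. Exposure: 48 h. Format: 96-well plates. Endpoint: linear interpolation; highest concentration if not reached. The concentration for 50% growth inhibition is given as GI50. TGI denotes the concentration required for complete inhibition of growth.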

Legend:
Test in all cases: NCI-60 cell line screen, 48 h
[1] = test system: SNB-75 CNS
[2] = test system: HOP-92 NSCLC
[3] = test system: CCRF-CEM leukemia
[4] = test system: SR leukemia
[5] = test system: SNB-19 CNS
[6] = test system: SK-MEL-28 melanoma
[7] = test system: OVCAR-4 ovarian
[8] = test system: HCT-15 colon
[9] = test system: NCI-H23 lung
[10] = test system: SN12C renal
[11] = test system: NCI/ADR-RES ovarian
[12] = test system: UACC-257 melanoma
[13] = test system: 786-0 renal
[14] = test system: IGROV1 ovarian
[15] = test system: SF-539 CNS
[16] = test system: PC-3 prostate
[17] = test system: A498 renal
[18] = test system: NCI-H522 lung
[19] = test system: OVCAR-5 ovarian
[20] = test system: MCF7 breast
[21] = test system: DU-145 prostate
[22] = test system: HS 578T breast
[23] = test system: ACHN renal
[24] = test system: HL-60(TB) leukemia
[25] = test system: MDA-MB-231 breast
[26] = test system: NCI-H226 lung
[27] = test system: KM12 colon
[28] = test system: LOX IMVI melanoma

CCN1C(=O)N(CC)C2SC(N/N=C/c3cccs3)=NC21 (centres undefined)
GI50 [1]: 122 nM | GI50 [2]: 922 nM | TGI [2]: > 23300 nM | GI50 [3]: 360 nM | TGI [3]: > 100000 nM | GI50 [4]: 54.6 nM | TGI [4]: > 26800 nM | GI50 [5]: 428 nM | TGI [5]: > 100000 nM | GI50 [6]: > 19700 nM | TGI [6]: > 100000 nM | TGI [7]: > 100000 nM | GI50 [8]: 202 nM | TGI [8]: > 100000 nM | GI50 [9]: 418 nM | TGI [9]: > 100000 nM | GI50 [10]: 653 nM | TGI [10]: > 100000 nM | GI50 [11]: 356 nM | TGI [11]: > 100000 nM | GI50 [12]: 1050 nM | TGI [12]: > 100000 nM | GI50 [13]: 643 nM | TGI [13]: > 100000 nM | GI50 [14]: 579 nM | TGI [14]: > 100000 nM | GI50 [15]: 198 nM | TGI [15]: 823 nM | GI50 [16]: 345 nM | TGI [16]: > 100000 nM | GI50 [17]: 131 nM | TGI [17]: 705 nM | GI50 [18]: 81.1 nM | TGI [18]: 386 nM | GI50 [19]: 527 nM | TGI [19]: > 100000 nM | GI50 [20]: 119 nM | TGI [20]: > 100000 nM | GI50 [21]: 483 nM | TGI [21]: > 100000 nM | GI50 [22]: 286 nM | TGI [22]: > 100000 nM | GI50 [23]: 581 nM | TGI [23]: > 100000 nM | GI50 [24]: 186 nM | TGI [24]: 658 nM | GI50 [25]: 540 nM | TGI [25]: > 100000 nM | GI50 [26]: 1430 nM | TGI [26]: > 100000 nM | GI50 [27]: 232 nM | TGI [27]: > 100000 nM | GI50 [28]: 446 nM | TGI [28]: > 100000 nM
